Experimental data: US20220281886A1, “NATRIURETIC PEPTIDE RECEPTOR A AGONISTS USEFUL FOR THE TREATMENT OF CARDIOMETABOLIC DISEASES, KIDNEY DISEASE AND DIABETES” (Merck Sharp & Dohme Corp., priority 2019, published 2022)

Biological target: T1, hNPRA (Homo sapiens, UniProt P16066)
T1 construct: expressed in transfected cells
T1 sequence (P16066 33-1061): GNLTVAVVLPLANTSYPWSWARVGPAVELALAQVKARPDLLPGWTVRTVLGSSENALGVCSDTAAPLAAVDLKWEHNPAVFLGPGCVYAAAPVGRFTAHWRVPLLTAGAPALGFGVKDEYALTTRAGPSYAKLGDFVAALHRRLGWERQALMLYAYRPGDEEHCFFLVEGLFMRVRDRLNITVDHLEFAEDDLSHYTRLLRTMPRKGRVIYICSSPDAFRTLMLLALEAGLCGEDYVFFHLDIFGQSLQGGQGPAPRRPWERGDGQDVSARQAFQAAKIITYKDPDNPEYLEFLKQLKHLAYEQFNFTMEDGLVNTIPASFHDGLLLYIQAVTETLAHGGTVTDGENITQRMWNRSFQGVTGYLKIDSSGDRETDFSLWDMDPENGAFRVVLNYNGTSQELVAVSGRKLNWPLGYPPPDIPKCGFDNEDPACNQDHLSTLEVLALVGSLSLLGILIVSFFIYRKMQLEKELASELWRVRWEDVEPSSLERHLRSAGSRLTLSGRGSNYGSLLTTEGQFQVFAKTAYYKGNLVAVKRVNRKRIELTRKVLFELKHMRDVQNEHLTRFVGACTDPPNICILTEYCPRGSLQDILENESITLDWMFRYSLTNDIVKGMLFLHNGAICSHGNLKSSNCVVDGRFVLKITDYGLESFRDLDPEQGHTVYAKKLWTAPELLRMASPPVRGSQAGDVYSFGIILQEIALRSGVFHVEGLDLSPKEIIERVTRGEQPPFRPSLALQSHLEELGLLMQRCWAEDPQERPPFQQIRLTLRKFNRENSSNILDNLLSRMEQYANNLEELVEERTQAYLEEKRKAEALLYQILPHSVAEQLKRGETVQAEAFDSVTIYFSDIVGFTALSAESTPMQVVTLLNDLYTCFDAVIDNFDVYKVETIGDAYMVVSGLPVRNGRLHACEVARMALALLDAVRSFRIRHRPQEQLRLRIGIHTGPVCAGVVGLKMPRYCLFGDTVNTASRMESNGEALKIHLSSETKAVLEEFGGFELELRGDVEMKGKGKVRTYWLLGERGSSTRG
Experiment: NPRA Functional Cell Assay (cGMP HTRF)
Type: cell-based
Conditions: Human NPRA HEK JumpIn stable cells; cGMP by HTRF after 1 hour at 37° C.; 10-point dose response
Source text: Assay Buffer components HEPES and Opti-MEM® I Reduced-Serum with Glutamine (no phenol red) were from Gibco/Invitrogen (Thermo Fisher Scientific, Waltham, Mass. USA). 3-Isobutyl-1-methylxanthine (IBMX) and 4-(3-Butoxy-4-methoxybenzyl)imidazolidin-2-one (RO20) were obtained from Sigma-Aldrich (St. Louis, Mo., USA). DPBS (Dulbecco's phosphate-buffered saline) without Ca2+ and Mg2+ was purchased from GE Healthcare Bio-Sciences (Pittsburgh, Pa., USA). 384 well white Optiplates were from Perkin Elmer (Atlantic Highlands, N.J., USA). Human ANP (Atrial Natriuretic Peptide) (1-28) was purchased from Sigma-Aldrich (Catalog #A1663) and rat ANP (1-28) from Bachem (Torrance, Calif., USA) (Catalog #H2100). Human-BNP (Human-Brain Natriuretic Peptide) (1-32 AA) was purchased from American Peptide Company (Sunnyvale, Calif., USA) (product No. 14-1-90). cGMP kits were purchased from Cisbio. The assay ready frozen (ARF) Human/rat/dog NPRA HEK JumpIn Stable frozen cells (low passage number 5-11) were prepared in-house.
Test compounds were titrated in DMSO in a 10-point dose response in a separate step followed by a 100-fold dilution into the reaction. Positive response for each assay was determined using 10 nM rat-ANP peptide (rat cells) or 50 nM h-ANP peptide (human and dog cells).
Cells were thawed, washed with DPBS and resuspended in assay buffer (Opti-MEM+Glutamine, phenol red free media, 10 mM HEPES, 100 uM IBMX and 100 uM RO20) that was warmed to 37° C. Cells were then transferred to microplates via a Microplate Combi dispenser at a density of 1500, 400 and 1200 cells/well for human, rat and dog cells respectively, followed by acoustic transfer (Echo) of compound.
(§1) Compounds and cells were incubated at 37° C. with 5% CO2 for 1 hour, after which the cells were lysed and cGMP was captured using a CisBio cGMP HTRF assay kit. The TRF signal was measured with an Envision plate reader (emission set to 615 and 665 nm) after 1 hour incubation at ambient temperature. The TRF signal was converted to [cGMP] through the use of a cGMP calibration curve on each microplate. EC50's were generated from the resulting dose response curves by use of a 4 parameter logistic algorithm.
Assay Buffer components HEPES and Opti-MEM® I Reduced-Serum with Glutamine (no phenol red) were from Gibco/Invitrogen. 3-Isobutyl-1-methylxanthine (IBMX) and 4-(3-Butoxy-4-methoxybenzyl)imidazolidin-2-one (RO20) were obtained from Sigma. DPBS (Dulbecco's phosphate-buffered saline) without Ca2+ and Mg2+ was purchased from GE Healthcare Bio-Sciences (Pittsburgh, Pa., USA). 384 well white Optiplates were from Perkin Elmer (Atlantic Highlands, N.J., USA). Human ANP (1-28) was purchased from Sigma (A1663) and rat ANP (1-28) from Bachem (H2100). Human-BNP (1-32 AA) was purchased from American Peptide Company (Sunnyvale, Calif., USA) (product No. 14-1-90). cGMP kits were purchased from Cisbio (Bedford, Mass., USA). The assay ready frozen (ARF) Human/rat/dog NPRA HEK JumpIn Stable frozen cells (low passage number 5-11) were prepared in-house.
as §1, with “Envision®” for “Envision”, “(Perkin Elmer)(emission” for “(emission”
hNPRA EC50 (nM) are were determined for the compounds of Example 1 through 273 and are reported in the Experimental section of this application.

SMILES | EC50 [nM]
CC(C)[C@]1(F)CCc2nc3c(F)cc(C(=O)N[C@H](CCN4CC(O)C4)c4ccc(-c5ccnnc5)nc4)cc3cc2C1 (racemic) [Example 63, rac-(7S)-4,7-difluoro-7-isopropyl-N-[rac-(1R)-3-(3-hydroxyazetidin-1-ium-1-yl)-1-(6-pyridazin-4-yl-3-pyridyl)propyl]-6,8-dihydro-5H-acridine-2-carboxamide;2,2,2-trifluoroacetate] | 1190
CC(C)[C@]1(F)CCc2nc3c(F)cc(C(=O)N[C@H](CCN4CCC(C(F)(F)F)CC4)c4ccc(-c5ccnnc5)nc4)cc3cc2C1 (racemic) [Example 64, rac-(7S)-4,7-difluoro-7-isopropyl-N-[rac-(1R)-1-(6-pyridazin-4-yl-3-pyridyl)-3-[4-(trifluoromethyl)-1-piperidyllpropyl]-6,8-dihydro-5H-acridine-2-carboxamide] | 1060
CN1CC(NC(=O)c2cccc([C@@H](CCN3CCC(CC(=O)O)CC3)NC(=O)c3ccc4nc5c(cc4c3)C[C@@H](C3(C)CC3)CC5)c2)C1 (racemic) [Example 66, 2-[1-[rac-(3R)-3-[3-[(1-methylazetidin-3-yl)carbamoyl]phenyl]-3-[[rac-(7S)-7-(1-methylcyclopropyl)-5,6,7,8-tetrahydroacridine-2-carbonyl]amino]propyl]-4-piperidyl]acetic acid] | 398
CN(C)CC[C@@H](NC(=O)c1ccc2nc3c(cc2c1)C[C@@H](C1(C)CC1)CC3)c1cccc(C(=O)NC2CN(C)C2)c1 (racemic) [Example 67, rac-(7S)-7-(1-methylcyclopropyl)-N-[rac-(1R)-3-(dimethylamino)-1-[3-[(1-methylazetidin-3-yl)carbamoyl]phenyl]propyl]-5,6,7,8-tetrahydroacridine-2-carboxamide] | 378

Second part, the molecule after the results:

EC50 [nM] | SMILES
182 | CC(C)[C@]1(F)CCc2nc3c(F)cc(C(=O)N[C@H](CCN4CCC(CN5CCOCC5)CC4)c4ccc(-c5ccnnc5)nc4)cc3cc2C1 (racemic) [Example 60, rac-(7S)-4,7-difluoro-7-isopropyl-N-[rac-(1R)-3-[4-(morpholinomethyl)-1-piperidyl]-1-(6-pyridazin-4-yl-3-pyridyl)propyl]-6,8-dihydro-5H-acridine-2-carboxamide]
103 | CC(C)[C@]1(F)CCc2nc3c(F)cc(C(=O)N[C@H](CCN4[C@H](C)CCC[C@@H]4C)c4ccc(-c5ccnnc5)nc4)cc3cc2C1 (racemic) [Example 61, rac-(7S)-4,7-difluoro-7-isopropyl-N-[rac-(1R)-1-(6-pyridazin-4-yl-3-pyridyl)-3-[rac-(2R,6S)-2,6-dimethyl-1-piperidyllpropyl]-6,8-dihydro-5H-acridine-2-carboxamide]
60.3 | CC(C)[C@]1(F)CCc2nc3c(F)cc(C(=O)N[C@H](CCN4CCC5(CCO5)CC4)c4ccc(-c5ccnnc5)nc4)cc3cc2C1 (racemic) [Example 62, rac-(7S)-4,7-difluoro-7-isopropyl-N-[rac-(1R)-3-(1-oxa-7-azaspiro[3.5]nonan-7-yl)-1-(6-pyridazin-4-yl-3-pyridyl)propyl]-6,8-dihydro-5H-acridine-2-carboxamide]
359 | COC(=O)CC1CCN(CC[C@@H](NC(=O)c2ccc3nc4c(cc3c2)C[C@@H](C2(C)CC2)CC4)c2cccc(C(=O)NC3CN(C)C3)c2)CC1 (racemic) [Example 65, methyl 2-[1-[rac-(3R)-3-[(1-methylazetidin-3-yl)carbamoyl]phenyl]-3-[[rac-(7S)-7-(1-methylcyclopropyl)-5,6,7,8-tetrahydroacridine-2-carbonyl]amino]propyl]-4-piperidyl]acetate]
369 | CN1CC(NC(=O)c2cccc([C@@H](CCN3CCC(O)CC3)NC(=O)c3ccc4nc5c(cc4c3)C[C@@H](C3(C)CC3)CC5)c2)C1 (racemic) [Example 68, rac-(7S)-7-(1-methylcyclopropyl)-N-[rac-(1R)-3-(4-hydroxy-1-piperidyl)-1-[3-[(1-methylazetidin-1-ium-3-yl)carbamoyl]phenyl]propyl]-5,6,7,8-tetrahydroacridine-2-carboxamide;2,2,2-trifluoroacetate]
